Assay results from patent US10196685B2, “Methods and systems for delivering process gases to critical process applications” (RASIRC, INC., priority 2014, dated 2019).
Several values for one entry are separate records, joined by “and”; a condition that tells them apart may be missing. Equal values may be shown once. Read-outs that look alike come from different tables or passages of the source.

Experiments:
[1] = system: E. coli; conditions: 1.7×10^7 cfu E. coli per spot; gas-phase H2O2 505 ppm, H2O 2122 ppm, 60 minutes, 25° C.
Excerpt: The CDA gas pressure was maintained at 25 psig with the pressure regulator. A 0.01 micron filter removed particulates from the gas stream. The MFCs controlled the flow of the carrier gas streams and the dilution gas stream. […] The water temperature was used to control the output of the humidifier. The valves (V-1, V-2, and V-3) were used to send either the dry CDA gas stream, the RHS gas stream, and/or SGD gas stream through the furnace or out to vent. […] TC-3 and TC-4 were used to measure the gas temperature downstream of the SGD. The furnace was used to keep the bacterial samples at temperature to prevent condensation. TC-5 was used to measure the temperature in the quartz furnace. TC-6 was used to measure the gas temperature downstream of the furnace. A pressure gauge (PG-1) was used to monitor the pressure in the furnace. A Teledyne Prototype Analyzer was used to determine stability of the peroxide gas and its temperature was kept at 120° C. […] The boxed sections show the individual heat traced control zones for this experiment.
(§1) The initial test manifold was set to the following temperatures: • Zone 1=72° C. (Outlet temperature of SGD) • Zone 3=90° C.
The dilution gas flow rate was set to 5 slm, the RHS carrier gas to 180 sccm, and the SGD carrier gas flow to 1 slm. The RHS was then set to a 35° C. dew point, and the SGD to 30° C., running both gas streams to vent. […]

[2] = system: bovine genomic DNA; conditions: H2O2 505 ppm, 5 hours; for Average Decrease %: three replicates
Experimental: as §1
The dilution gas flow rate was set to 5 slm, the RHS carrier gas to 180 sccm, and the SGD carrier gas flow to 1 slm. The RHS was then set to a 35° C. dew point, and the SGD to 30° C., running both gas streams to vent. The furnace and the heat-traced line temperatures were adjusted to achieve the desired gas temperatures. The SGD and RHS systems were allowed to stabilize. Samples were treated and processed as described in the following Examples.
A PCR plate to be used for quantifying amplifiable DNA was prepared with three replicates at each target input level (i.e., ranging from 0 ng to 1,000 ng). In each instance, measured aliquots of an aqueous solution of bovine genomic DNA were added to individual wells of the plate, and then dried. […] The chamber was initially purged for 15 minutes with CDA. […] Finally, the chamber was purged for an additional 15 minutes with CDA. Each well containing treated sample next received an aliquot of liquid reagents needed to carry out PCR amplification reactions. These reagents included: a pair of unlabeled DNA primers capable of amplifying the template; nucleotide triphosphates; buffer and salts; a dual-labeled hydrolysis probe specific for the DNA amplification product; and a thermostable DNA polymerase having 5′-3′ exonuclease activity. Amplification reactions were carried out using procedures familiar to those of ordinary skill in the art, and the appearance of fluorescent signals monitored as a function of time in a real-time format.

[3] = system: bacterial samples; conditions: visible mist or fog, droplets condensed onto the sample
[4] = system: S. epi
Experimental: (§2) A 0.01 micron filter removed particulates from the gas stream. […] The water temperature was used to control the output of the humidifier. […] The furnace was used to keep the bacterial samples at temperature to prevent condensation. […] The boxed sections show the individual heat traced control zones for this experiment.
as §1

[5] = system: E. coli
Experimental: as §2, §1

Compound: OO [hydrogen peroxide gas, hydrogen peroxide]
- Growth on tryptic soy agar plates after H202 treatment (bacterial slides) [1]: No Growth
- Decrease % ([2]; Input 1 ng DNA, 25° C.): 100%
- Remaining % ([2]; Input 1 ng DNA, 25° C.): 0%
- Calculated ng After Treatment ([2]; Input 1 ng DNA, H2O 2122 ppm, 25° C.): 0 ng
- Average Decrease % ([2]; Input 1 ng DNA, 25° C.): 100.00%
- Decrease % ([2]; Input 10 ng DNA, 25° C.): 98.55% and 99.28% and 94.5%
- Average Decrease % ([2]; Input 10 ng DNA, 25° C.): 97.44%
- Decrease % ([2]; Input 100 ng DNA, 25° C.): 99.19% and 99.92% and 99.978%
- Average Decrease % ([2]; Input 100 ng DNA, 25° C.): 99.70%
- Decrease % ([2]; Input 1000 ng DNA, 25° C.): 99.9957% and 99.9953% and 99.967%
- Average Decrease % ([2]; Input 1000 ng DNA, 25° C.): 99.99%
- Reduction of amplifiable DNA ([2]; sample containing the greatest amount of starting material): about 4 logs
- Amplifiable DNA after treatment ([2]; sample containing the lowest amount of starting material): completely undetectable
- Effect on the number of viable organisms [3]: did not significantly reduce the number of viable organisms
- CONCENTRATION (S. epi in device with H2O2) ([4]; 5 hour H2O2 exposure, average H2O2 output 518±14 ppm, stock 3.5 × 10^6): NO GROWTH
- Sterilization result in words ([4]; fifth experiment, 5 hour H2O2 exposure, 518±14 ppm): sterilized
- CONCENTRATION (S. epi in device with H2O2) ([4]; hydrogen peroxide gas 30 minutes, average H2O2 output 561±27 ppm, ≥25° C., stock 5.0 × 10^6, contamination believed): ~10^4 to 10^5 estimated
- CONCENTRATION (E. coli in device with H2O2) ([5]; hydrogen peroxide gas 30 minutes, average H2O2 output 561±27 ppm, ≥25° C., stock 2.5 × 10^7): NO GROWTH
- Sterilization result in words ([5]; tests of FIGS. 32 and 33, 30 minutes H2O2 gas): completely sterilized
